ChEMBL document CHEMBL1629679, “Extended-spectrum cephalosporinases in Pseudomonas aeruginosa” (2009)
Values after ≈ are worked out from the molar mass of the structure shown.

What was measured:
Pseudomonas aeruginosa [1] = test: Antimicrobial activity against AmpC overproducing Pseudomonas aeruginosa isolate Pae-beta-14 with PDC-2 variant by Etest; assay type: functional
Pseudomonas aeruginosa [2] = test: Antimicrobial activity against AmpC overproducing Pseudomonas aeruginosa isolate Pae-beta-09 with PDC-2 variant by Etest; assay type: functional
Pseudomonas aeruginosa [3] = test: Antimicrobial activity against AmpC overproducing Pseudomonas aeruginosa isolate Pae-beta-16 with PDC-3 variant by Etest; assay type: functional
Pseudomonas aeruginosa [4] = test: microbe, parasite or virus in culture; assay type: functional; conditions: KG2505a
Pseudomonas aeruginosa [5] = test: Antimicrobial activity against AmpC overproducing Pseudomonas aeruginosa isolate Pae-beta-03 with PDC-2 variant by Etest; assay type: functional
Pseudomonas aeruginosa [6] = test: Antimicrobial activity against AmpC overproducing Pseudomonas aeruginosa isolate Pae-beta-11 with PDC-2 variant by Etest; assay type: functional
Pseudomonas aeruginosa [7] = test: Antimicrobial activity against AmpC overproducing Pseudomonas aeruginosa isolate Pae-beta-20 with PDC-4 variant by Etest; assay type: functional
Pseudomonas aeruginosa [8] = test: Antimicrobial activity against AmpC overproducing Pseudomonas aeruginosa isolate Pae-beta-24 with PDC-5 variant by Etest; assay type: functional
Pseudomonas aeruginosa [9] = test: Antimicrobial activity against AmpC overproducing Pseudomonas aeruginosa isolate Pae-beta-10 with PDC-2 variant by Etest; assay type: functional
Pseudomonas aeruginosa [10] = test: Antimicrobial activity against Pseudomonas aeruginosa isolate Pae-beta-31 with PDC-9 variant by Etest; assay type: functional
Pseudomonas aeruginosa [11] = test: microbe, parasite or virus in culture; conditions: PAO1
Pseudomonas aeruginosa [12] = test: Antimicrobial activity against AmpC overproducing Pseudomonas aeruginosa isolate Pae-beta-08 with PDC-2 variant by Etest; assay type: functional
Pseudomonas aeruginosa [13] = test: microbe, parasite or virus in culture; assay type: functional; conditions: KG2505a; remark: listed apart in the source
Pseudomonas aeruginosa [14] = test: Antimicrobial activity against Pseudomonas aeruginosa isolate Pae-beta-30 with PDC-8 variant by Etest; assay type: functional
Pseudomonas aeruginosa [15] = test: Antimicrobial activity against AmpC overproducing Pseudomonas aeruginosa isolate Pae-beta-13 with PDC-2 variant by Etest; assay type: functional
Pseudomonas aeruginosa [16] = test: microbe, parasite or virus in culture; assay type: functional; conditions: KG2505a; remark: listed apart in the source
Pseudomonas aeruginosa [17] = test: Antimicrobial activity against AmpC overproducing Pseudomonas aeruginosa isolate Pae-beta-28 with PDC-7 variant by Etest; assay type: functional
Pseudomonas aeruginosa [18] = test: microbe, parasite or virus in culture; assay type: functional; conditions: KG2505a; remark: listed apart in the source
Pseudomonas aeruginosa [19] = test: Antimicrobial activity against AmpC overproducing Pseudomonas aeruginosa isolate Pae-beta-15 with PDC-2 variant by Etest; assay type: functional
Pseudomonas aeruginosa [20] = test: Antimicrobial activity against AmpC overproducing Pseudomonas aeruginosa isolate Pae-beta-27 with PDC-7 variant by Etest; assay type: functional
Pseudomonas aeruginosa [21] = test: microbe, parasite or virus in culture; conditions: 12B
Pseudomonas aeruginosa [22] = test: Antimicrobial activity against AmpC overproducing Pseudomonas aeruginosa isolate Pae-beta-21 with PDC-4 variant by Etest; assay type: functional
Pseudomonas aeruginosa [23] = test: Antimicrobial activity against AmpC overproducing Pseudomonas aeruginosa isolate Pae-beta-23 with PDC-5 variant by Etest; assay type: functional
Pseudomonas aeruginosa [24] = test: Antimicrobial activity against AmpC overproducing Pseudomonas aeruginosa isolate Pae-beta-32 with PDC-10 variant by Etest; assay type: functional
Pseudomonas aeruginosa [25] = test: Antimicrobial activity against AmpC overproducing Pseudomonas aeruginosa isolate Pae-beta-17 with PDC-3 variant by Etest; assay type: functional
Pseudomonas aeruginosa [26] = test: Antimicrobial activity against AmpC overproducing Pseudomonas aeruginosa isolate Pae-beta-07 with PDC-2 variant by Etest; assay type: functional
Pseudomonas aeruginosa [27] = test: microbe, parasite or virus in culture; assay type: functional; conditions: 12B
Pseudomonas aeruginosa [28] = test: Antimicrobial activity against AmpC overproducing Pseudomonas aeruginosa isolate Pae-beta-06 with PDC-2 variant by Etest; assay type: functional
Pseudomonas aeruginosa [29] = test: Antimicrobial activity against AmpC overproducing Pseudomonas aeruginosa isolate Pae-beta-22 with PDC-4 variant by Etest; assay type: functional
Pseudomonas aeruginosa [30] = test: microbe, parasite or virus in culture; assay type: functional; conditions: KG2505a; remark: listed apart in the source
Pseudomonas aeruginosa [31] = test: Antimicrobial activity against AmpC overproducing Pseudomonas aeruginosa isolate Pae-beta-25 with PDC-6 variant by Etest; assay type: functional
Pseudomonas aeruginosa [32] = test: Antimicrobial activity against AmpC overproducing Pseudomonas aeruginosa isolate Pae-beta-12 with PDC-2 variant by Etest; assay type: functional
Pseudomonas aeruginosa [33] = test: Antimicrobial activity against AmpC overproducing Pseudomonas aeruginosa isolate Pae-beta-18 with PDC-3 variant by Etest; assay type: functional
Pseudomonas aeruginosa [34] = test: Antimicrobial activity against AmpC overproducing Pseudomonas aeruginosa isolate Pae-beta-04 with PDC-2 variant by Etest; assay type: functional
Pseudomonas aeruginosa [35] = test: microbe, parasite or virus in culture; conditions: 12B; remark: listed apart in the source
Pseudomonas aeruginosa [36] = test: Antimicrobial activity against Pseudomonas aeruginosa isolate Pae-beta-05 with PDC-2 variant by Etest; assay type: functional
Pseudomonas aeruginosa [37] = test: Antimicrobial activity against Pseudomonas aeruginosa isolate Pae-beta-29 with PDC-8 variant by Etest; assay type: functional

Structure (SMILES) | MIC (Pseudomonas aeruginosa [1]) | MIC (Pseudomonas aeruginosa [2]) | MIC (Pseudomonas aeruginosa [3]) | MIC (Pseudomonas aeruginosa [5]) | MIC (Pseudomonas aeruginosa [6]) | MIC (Pseudomonas aeruginosa [7]) | MIC (Pseudomonas aeruginosa [8]) | MIC (Pseudomonas aeruginosa [9]) | MIC (Pseudomonas aeruginosa [10]) | MIC (Pseudomonas aeruginosa [12]) | MIC (Pseudomonas aeruginosa [14]) | MIC (Pseudomonas aeruginosa [15]) | MIC (Pseudomonas aeruginosa [17]) | MIC (Pseudomonas aeruginosa [19]) | MIC (Pseudomonas aeruginosa [20]) | MIC (Pseudomonas aeruginosa [22]) | MIC (Pseudomonas aeruginosa [23]) | MIC (Pseudomonas aeruginosa [24]) | MIC (Pseudomonas aeruginosa [25]) | MIC (Pseudomonas aeruginosa [26]) | other results
CO/N=C(\C(=O)N[C@@H]1C(=O)N2C(C(=O)[O-])=C(C[N+]3(C)CCCC3)CS[C@H]12)c1csc(N)n1 | 32 µg/mL (≈ 66.6 µM) | 32 µg/mL (≈ 66.6 µM) | 32 µg/mL (≈ 66.6 µM) | 64 µg/mL (≈ 133 µM) | 32 µg/mL (≈ 66.6 µM) | 16 µg/mL (≈ 33.3 µM) | 64 µg/mL (≈ 133 µM) | 32 µg/mL (≈ 66.6 µM) | 32 µg/mL (≈ 66.6 µM) | 32 µg/mL (≈ 66.6 µM) | 8 µg/mL (≈ 16.6 µM) | 16 µg/mL (≈ 33.3 µM) | 16 µg/mL (≈ 33.3 µM) | 128 µg/mL (≈ 266 µM) | 64 µg/mL (≈ 133 µM) | 32 µg/mL (≈ 66.6 µM) | 32 µg/mL (≈ 66.6 µM) | 32 µg/mL (≈ 66.6 µM) | 32 µg/mL (≈ 66.6 µM) | 32 µg/mL (≈ 66.6 µM) | MIC (Pseudomonas aeruginosa [4]): 1 µg/mL (≈ 2.08 µM); MIC (Pseudomonas aeruginosa [11]): 2 µg/mL (≈ 4.16 µM); MIC (Pseudomonas aeruginosa [13]): 4 µg/mL (≈ 8.32 µM); MIC (Pseudomonas aeruginosa [16]): 16 µg/mL (≈ 33.3 µM); MIC (Pseudomonas aeruginosa [18]): 4 µg/mL (≈ 8.32 µM); MIC (Pseudomonas aeruginosa [21]): 32 µg/mL (≈ 66.6 µM); MIC (Pseudomonas aeruginosa [27]): 4 µg/mL (≈ 8.32 µM); MIC (Pseudomonas aeruginosa [28]): 32 µg/mL (≈ 66.6 µM); MIC (Pseudomonas aeruginosa [29]): 16 µg/mL (≈ 33.3 µM); MIC (Pseudomonas aeruginosa [30]): 16 µg/mL (≈ 33.3 µM); MIC (Pseudomonas aeruginosa [31]): 32 µg/mL (≈ 66.6 µM); MIC (Pseudomonas aeruginosa [32]): 32 µg/mL (≈ 66.6 µM); MIC (Pseudomonas aeruginosa [33]): 128 µg/mL (≈ 266 µM); MIC (Pseudomonas aeruginosa [34]): 32 µg/mL (≈ 66.6 µM); MIC (Pseudomonas aeruginosa [35]): 32 µg/mL (≈ 66.6 µM); MIC (Pseudomonas aeruginosa [36]): 16 µg/mL (≈ 33.3 µM)
C[C@@H](O)[C@H]1C(=O)N2C(C(=O)O)=C(SCCNC=N)C[C@H]12 [IMIPENEM ANHYDROUS] | 16 µg/mL (≈ 53.4 µM) | 16 µg/mL (≈ 53.4 µM) | 32 µg/mL (≈ 107 µM) | 16 µg/mL (≈ 53.4 µM) | 16 µg/mL (≈ 53.4 µM) | 16 µg/mL (≈ 53.4 µM) | 32 µg/mL (≈ 107 µM) | 16 µg/mL (≈ 53.4 µM) | 16 µg/mL (≈ 53.4 µM) | 16 µg/mL (≈ 53.4 µM) | 8 µg/mL (≈ 26.7 µM) | 16 µg/mL (≈ 53.4 µM) | 16 µg/mL (≈ 53.4 µM) | 16 µg/mL (≈ 53.4 µM) | 32 µg/mL (≈ 107 µM) | 16 µg/mL (≈ 53.4 µM) | 32 µg/mL (≈ 107 µM) | 64 µg/mL (≈ 214 µM) | 32 µg/mL (≈ 107 µM) | 16 µg/mL (≈ 53.4 µM) | MIC (Pseudomonas aeruginosa [37]): 16 µg/mL (≈ 53.4 µM); MIC (Pseudomonas aeruginosa [28]): 16 µg/mL (≈ 53.4 µM); MIC (Pseudomonas aeruginosa [29]): 8 µg/mL (≈ 26.7 µM); MIC (Pseudomonas aeruginosa [31]): 8 µg/mL (≈ 26.7 µM); MIC (Pseudomonas aeruginosa [32]): 16 µg/mL (≈ 53.4 µM); MIC (Pseudomonas aeruginosa [33]): 64 µg/mL (≈ 214 µM); MIC (Pseudomonas aeruginosa [34]): 16 µg/mL (≈ 53.4 µM); MIC (Pseudomonas aeruginosa [36]): 16 µg/mL (≈ 53.4 µM)
